Like-named read-outs stand apart in the source and are kept apart here.

This note sets out measurements from PMC7026418, “The kinase polypharmacology landscape of clinical PARP inhibitors” (Scientific Reports, 2020).

What all share (assay): biochemical
Holding throughout (design): DiscoveRx KINOMEscan active site-directed competition binding; percent of control kinase bound to immobilised ligand

For one experiment, the target named is CAMK2G (Homo sapiens, UniProt Q13555).
The next experiment deals with MET(M1250T) (Homo sapiens, UniProt P08581, M1250T).
The next experiment concerns the target T1, NEK10 (Homo sapiens, UniProt Q6ZWH5).
T1 sequence (Q6ZWH5 1-1172): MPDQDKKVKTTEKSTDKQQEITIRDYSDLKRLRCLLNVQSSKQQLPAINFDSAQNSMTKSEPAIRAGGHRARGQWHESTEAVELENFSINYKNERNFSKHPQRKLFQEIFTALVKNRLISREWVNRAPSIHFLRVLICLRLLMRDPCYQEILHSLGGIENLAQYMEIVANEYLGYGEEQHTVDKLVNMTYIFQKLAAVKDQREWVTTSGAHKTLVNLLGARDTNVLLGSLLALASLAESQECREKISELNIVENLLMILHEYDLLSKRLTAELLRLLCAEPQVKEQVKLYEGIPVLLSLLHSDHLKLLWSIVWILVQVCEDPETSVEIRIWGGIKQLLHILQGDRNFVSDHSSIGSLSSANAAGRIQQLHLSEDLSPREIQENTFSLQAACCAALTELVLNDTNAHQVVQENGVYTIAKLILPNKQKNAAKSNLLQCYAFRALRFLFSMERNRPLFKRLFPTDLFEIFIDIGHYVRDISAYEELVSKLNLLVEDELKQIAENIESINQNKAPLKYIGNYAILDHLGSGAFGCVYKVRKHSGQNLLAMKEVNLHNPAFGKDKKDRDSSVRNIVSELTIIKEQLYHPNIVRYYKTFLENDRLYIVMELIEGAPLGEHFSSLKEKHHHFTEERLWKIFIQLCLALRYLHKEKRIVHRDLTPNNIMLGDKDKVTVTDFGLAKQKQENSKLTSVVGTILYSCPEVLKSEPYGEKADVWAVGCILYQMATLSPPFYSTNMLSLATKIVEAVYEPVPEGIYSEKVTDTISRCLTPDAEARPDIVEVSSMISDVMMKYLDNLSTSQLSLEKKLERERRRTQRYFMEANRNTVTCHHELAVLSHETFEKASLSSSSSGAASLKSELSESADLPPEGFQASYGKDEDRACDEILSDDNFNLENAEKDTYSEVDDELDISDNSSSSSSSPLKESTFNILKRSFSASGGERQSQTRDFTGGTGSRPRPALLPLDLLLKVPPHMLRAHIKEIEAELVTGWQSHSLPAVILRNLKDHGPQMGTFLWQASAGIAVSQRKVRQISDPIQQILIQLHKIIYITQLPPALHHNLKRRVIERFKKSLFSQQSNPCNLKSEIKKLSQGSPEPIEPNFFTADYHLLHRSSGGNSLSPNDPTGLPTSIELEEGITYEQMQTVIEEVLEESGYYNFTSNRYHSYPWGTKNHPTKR

For a further experiment, the target named is T2, PIP5K2B (Homo sapiens, UniProt P78356).
T2 construct: gene PIP4K2B
T2 sequence (P78356 1-416): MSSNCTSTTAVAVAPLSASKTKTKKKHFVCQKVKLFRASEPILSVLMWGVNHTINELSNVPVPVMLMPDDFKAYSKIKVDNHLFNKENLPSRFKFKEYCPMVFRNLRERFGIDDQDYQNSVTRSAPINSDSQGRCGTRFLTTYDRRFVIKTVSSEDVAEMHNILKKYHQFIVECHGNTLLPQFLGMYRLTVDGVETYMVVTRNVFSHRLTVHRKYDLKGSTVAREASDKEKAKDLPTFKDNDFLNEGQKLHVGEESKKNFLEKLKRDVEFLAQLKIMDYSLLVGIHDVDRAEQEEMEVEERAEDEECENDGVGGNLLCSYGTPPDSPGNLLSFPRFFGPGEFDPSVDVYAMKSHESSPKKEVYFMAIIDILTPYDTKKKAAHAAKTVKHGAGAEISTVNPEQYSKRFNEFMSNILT

Experiment [1] deals with T3, RPS6KA5(Kin.Dom.1-N-terminal) (Homo sapiens, UniProt O75582).
T3 construct: Kin.Dom.1-N-terminal

For another experiment, the target named is T4, YES (Homo sapiens, UniProt P07947).
T4 construct: gene YES1

Where [2] appears, read: read-out: Niraparib (MK-4827) / %Ctrl @ 10000nM.
[3] abbreviates: read-out: Olaparib / %Ctrl @ 10000nM.
Where [4] appears, read: read-out: Rucaparib / %Ctrl @ 10000nM, binding competition, % of control.
Where [5] appears, read: read-out: Talazoparib (BMN 673) / %Ctrl @ 10000nM.

T4 sequence (P07947 whole entry): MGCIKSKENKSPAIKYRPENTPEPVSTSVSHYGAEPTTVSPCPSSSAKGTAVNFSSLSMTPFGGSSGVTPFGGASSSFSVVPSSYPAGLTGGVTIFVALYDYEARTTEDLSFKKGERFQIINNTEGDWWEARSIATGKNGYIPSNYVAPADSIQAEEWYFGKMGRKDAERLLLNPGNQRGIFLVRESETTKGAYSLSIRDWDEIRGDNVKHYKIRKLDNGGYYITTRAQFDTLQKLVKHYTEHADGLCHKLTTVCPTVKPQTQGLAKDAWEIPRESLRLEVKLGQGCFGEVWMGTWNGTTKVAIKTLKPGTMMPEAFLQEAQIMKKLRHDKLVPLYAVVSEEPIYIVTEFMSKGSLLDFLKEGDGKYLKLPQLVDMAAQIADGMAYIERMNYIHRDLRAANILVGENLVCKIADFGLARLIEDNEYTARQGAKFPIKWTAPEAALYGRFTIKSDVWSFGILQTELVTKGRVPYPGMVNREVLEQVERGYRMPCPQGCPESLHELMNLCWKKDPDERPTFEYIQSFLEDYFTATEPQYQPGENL
T3 sequence (O75582 whole entry): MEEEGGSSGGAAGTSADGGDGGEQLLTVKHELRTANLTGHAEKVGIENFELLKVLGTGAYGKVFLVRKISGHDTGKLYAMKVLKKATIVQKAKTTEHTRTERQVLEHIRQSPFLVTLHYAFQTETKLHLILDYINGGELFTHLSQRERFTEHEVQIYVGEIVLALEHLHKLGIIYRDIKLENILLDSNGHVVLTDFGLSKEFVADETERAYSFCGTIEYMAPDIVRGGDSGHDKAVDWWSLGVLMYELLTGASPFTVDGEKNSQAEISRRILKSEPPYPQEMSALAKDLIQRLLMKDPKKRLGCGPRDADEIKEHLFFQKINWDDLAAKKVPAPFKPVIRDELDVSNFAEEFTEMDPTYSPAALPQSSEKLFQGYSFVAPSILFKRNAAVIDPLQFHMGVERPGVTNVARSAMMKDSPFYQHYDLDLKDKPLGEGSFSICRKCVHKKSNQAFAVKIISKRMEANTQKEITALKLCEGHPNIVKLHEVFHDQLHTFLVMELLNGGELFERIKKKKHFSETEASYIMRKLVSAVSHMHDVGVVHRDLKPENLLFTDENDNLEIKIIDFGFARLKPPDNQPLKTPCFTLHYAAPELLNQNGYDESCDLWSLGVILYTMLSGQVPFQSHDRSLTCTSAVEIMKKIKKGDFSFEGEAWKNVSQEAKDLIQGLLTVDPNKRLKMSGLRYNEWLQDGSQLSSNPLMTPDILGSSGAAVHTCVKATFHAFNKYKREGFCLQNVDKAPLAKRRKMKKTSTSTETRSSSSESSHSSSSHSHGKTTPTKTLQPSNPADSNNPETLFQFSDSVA
Chain of MET(M1250T) (P08581 whole entry M1250T): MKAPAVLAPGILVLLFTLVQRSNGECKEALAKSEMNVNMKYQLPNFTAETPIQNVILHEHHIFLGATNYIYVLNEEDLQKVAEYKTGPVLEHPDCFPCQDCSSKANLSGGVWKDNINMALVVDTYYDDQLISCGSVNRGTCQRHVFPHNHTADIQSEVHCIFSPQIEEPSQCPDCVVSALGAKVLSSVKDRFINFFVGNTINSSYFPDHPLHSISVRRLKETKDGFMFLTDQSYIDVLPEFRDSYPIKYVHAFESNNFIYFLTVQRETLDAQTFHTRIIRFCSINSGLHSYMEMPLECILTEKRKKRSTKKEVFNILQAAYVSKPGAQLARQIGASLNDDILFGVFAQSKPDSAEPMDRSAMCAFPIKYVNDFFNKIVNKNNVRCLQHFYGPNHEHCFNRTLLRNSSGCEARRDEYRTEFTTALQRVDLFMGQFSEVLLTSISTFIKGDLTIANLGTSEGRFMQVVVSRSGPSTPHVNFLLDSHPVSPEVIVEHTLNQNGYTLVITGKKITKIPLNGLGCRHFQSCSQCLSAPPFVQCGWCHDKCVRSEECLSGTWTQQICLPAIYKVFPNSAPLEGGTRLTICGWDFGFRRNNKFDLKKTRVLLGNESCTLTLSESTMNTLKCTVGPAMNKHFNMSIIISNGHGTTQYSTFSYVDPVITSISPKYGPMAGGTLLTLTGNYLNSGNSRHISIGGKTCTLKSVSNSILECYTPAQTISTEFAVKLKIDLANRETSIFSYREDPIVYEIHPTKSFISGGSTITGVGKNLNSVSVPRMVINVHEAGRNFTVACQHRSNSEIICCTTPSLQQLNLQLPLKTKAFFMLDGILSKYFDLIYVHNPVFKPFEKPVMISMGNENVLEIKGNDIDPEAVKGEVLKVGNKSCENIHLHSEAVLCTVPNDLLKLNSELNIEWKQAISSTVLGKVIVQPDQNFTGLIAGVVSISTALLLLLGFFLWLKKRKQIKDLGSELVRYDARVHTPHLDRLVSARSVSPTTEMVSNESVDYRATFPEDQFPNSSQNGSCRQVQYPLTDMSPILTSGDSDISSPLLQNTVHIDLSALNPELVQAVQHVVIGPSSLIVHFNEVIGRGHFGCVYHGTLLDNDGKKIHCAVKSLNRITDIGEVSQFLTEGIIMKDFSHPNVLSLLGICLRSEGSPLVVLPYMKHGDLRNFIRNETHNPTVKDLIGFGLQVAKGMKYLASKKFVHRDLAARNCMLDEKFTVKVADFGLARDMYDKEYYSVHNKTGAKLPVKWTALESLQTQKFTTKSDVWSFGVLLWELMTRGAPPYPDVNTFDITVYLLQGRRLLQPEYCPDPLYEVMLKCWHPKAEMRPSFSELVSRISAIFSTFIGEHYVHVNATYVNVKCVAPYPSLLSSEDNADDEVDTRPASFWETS
Chain of CAMK2G (Q13555 whole entry): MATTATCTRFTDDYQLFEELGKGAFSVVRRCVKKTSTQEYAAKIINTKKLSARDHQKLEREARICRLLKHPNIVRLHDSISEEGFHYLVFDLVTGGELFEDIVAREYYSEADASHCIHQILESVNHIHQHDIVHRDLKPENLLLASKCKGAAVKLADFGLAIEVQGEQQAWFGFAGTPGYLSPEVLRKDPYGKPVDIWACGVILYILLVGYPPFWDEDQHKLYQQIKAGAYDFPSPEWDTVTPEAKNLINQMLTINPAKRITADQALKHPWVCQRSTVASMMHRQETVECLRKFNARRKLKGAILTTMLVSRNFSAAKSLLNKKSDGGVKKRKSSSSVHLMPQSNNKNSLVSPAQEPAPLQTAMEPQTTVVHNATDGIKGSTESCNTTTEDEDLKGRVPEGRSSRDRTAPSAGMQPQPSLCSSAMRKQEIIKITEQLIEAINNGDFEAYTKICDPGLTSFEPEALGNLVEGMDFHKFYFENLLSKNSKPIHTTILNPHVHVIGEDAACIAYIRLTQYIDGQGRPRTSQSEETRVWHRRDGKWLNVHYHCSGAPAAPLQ

On to `NC(=O)c1cccc2cn(-c3ccc([C@@H]4CCCNC4)cc3)nc12` [Niraparib], for which the percent of control binding at 10 µM at CAMK2G (setting [2]) came out at 95%; at MET(M1250T) (setting [2]) it was 91%; at NEK10 (setting [2]) it was 68%; on PIP5K2B (setting [2]), 80%; in experiment [1] (setting [2]), 99%; on YES (setting [2]), 83%.
Take `O=C(c1cc(Cc2n[nH]c(=O)c3ccccc23)ccc1F)N1CCN(C(=O)C2CC2)CC1` [Olaparib]: the percent of control binding at 10 µM on CAMK2G (setting [3]) was 100%; at MET(M1250T) (setting [3]) it was 99%; on NEK10 (setting [3]), 78%; at PIP5K2B (setting [3]), 96%; in experiment [1] (setting [3]), 94%; at YES (setting [3]), 93%.
With `CNCc1ccc(-c2[nH]c3cc(F)cc4c3c2CCNC4=O)cc1` [Rucaparib], the percent of control binding at 10 µM on CAMK2G (setting [4]) was 83%; at MET(M1250T) (setting [4]) it was 99%; on NEK10 (setting [4]), 14%; at PIP5K2B (setting [4]) it was 87%; in experiment [1] (setting [4]), 100%; on YES (setting [4]), 99%.
On to `Cn1ncnc1[C@H]1c2n[nH]c(=O)c3cc(F)cc(c23)N[C@@H]1c1ccc(F)cc1` [Talazoparib], for which the percent of control binding at 10 µM on CAMK2G (setting [5]) was determined as 95%; on MET(M1250T) (setting [5]), 99%; at NEK10 (setting [5]), 100%; on PIP5K2B (setting [5]), 92%; in experiment [1] (setting [5]) it was 98%; on YES (setting [5]), 92%.
